Experimental findings from patent publication US11814367B2, “Inhibitors of glycogen synthase 1 (GYS1) and methods of use thereof” (Maze Therapeutics, Inc., priority 2021, dated 2023) are described below.

In experiment [1] the target is hGYS1 enzyme (recombinant hGYS1/GN1 protein) (Homo sapiens (Human), UniProt P13807). In words: GYS1 coupled enzyme assay (PK/LDH). It counts as biochemical. The conditions noted are these: hGYS1/GN1 50 nM, UDP-Glucose 0.8 mM, G6P 1 mM; geometric mean of at least 2 runs.
hGYS1 enzyme (recombinant hGYS1/GN1 protein), sequence (P13807 whole entry): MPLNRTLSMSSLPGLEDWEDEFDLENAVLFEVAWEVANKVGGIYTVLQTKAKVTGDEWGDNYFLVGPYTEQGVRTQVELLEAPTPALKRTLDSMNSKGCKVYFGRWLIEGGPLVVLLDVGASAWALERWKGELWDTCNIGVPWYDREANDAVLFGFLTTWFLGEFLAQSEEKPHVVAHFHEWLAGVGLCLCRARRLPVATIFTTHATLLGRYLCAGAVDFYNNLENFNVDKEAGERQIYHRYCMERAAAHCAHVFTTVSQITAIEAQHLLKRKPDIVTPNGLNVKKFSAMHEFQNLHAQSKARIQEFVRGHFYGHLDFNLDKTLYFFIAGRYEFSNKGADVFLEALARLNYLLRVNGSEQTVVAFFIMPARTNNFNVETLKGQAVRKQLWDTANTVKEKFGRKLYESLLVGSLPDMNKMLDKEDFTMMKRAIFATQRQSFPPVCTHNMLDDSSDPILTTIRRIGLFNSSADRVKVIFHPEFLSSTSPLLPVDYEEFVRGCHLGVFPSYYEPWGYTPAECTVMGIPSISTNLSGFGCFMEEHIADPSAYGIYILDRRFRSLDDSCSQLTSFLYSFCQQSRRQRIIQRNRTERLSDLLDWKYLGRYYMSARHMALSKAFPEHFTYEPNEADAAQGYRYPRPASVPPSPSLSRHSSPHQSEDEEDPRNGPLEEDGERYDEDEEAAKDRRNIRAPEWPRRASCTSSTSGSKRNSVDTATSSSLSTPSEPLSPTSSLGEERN
hGYS1 enzyme (recombinant hGYS1/GN1 protein), sequence (P46976 whole entry partner): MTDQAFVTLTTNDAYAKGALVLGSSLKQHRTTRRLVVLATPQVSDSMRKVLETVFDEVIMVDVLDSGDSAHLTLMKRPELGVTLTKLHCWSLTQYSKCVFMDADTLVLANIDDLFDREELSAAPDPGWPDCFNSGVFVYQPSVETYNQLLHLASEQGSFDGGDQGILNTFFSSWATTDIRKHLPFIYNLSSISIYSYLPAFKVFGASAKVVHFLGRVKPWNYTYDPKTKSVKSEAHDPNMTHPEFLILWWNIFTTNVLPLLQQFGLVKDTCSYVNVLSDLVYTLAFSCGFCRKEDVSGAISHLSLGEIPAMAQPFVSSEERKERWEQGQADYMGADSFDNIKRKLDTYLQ
Experiment [2] deals with hGYS1 enzyme / glycogen synthesis in HeLa cells. As to the kind of experiment: GYS1 cell based assay (glycogen synthesis, Glucose-glo). Details: species or system human. The conditions noted are these: Homo sapiens, HeLa, 24 h, 24 h incubation, 20 mM glucose, geometric mean of at least 2 runs. The method, boiled down: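 HeLa cells starved 24 h in medium containing only 1× Glutamax were plated onto compound in medium with 20 mM glucose (1% DMSO final) for 24 h, 37 °C, 5% CO2. Acid lysates were Tris-quenched, glucoamylase-digested (pH 5.3, 1 h, 37 °C) and read by Glucose-glo luminescence. IC50 came from Hill fits, as geometric mean of ≥2 runs.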

In experiment [3] the target is hGYS2 enzyme (recombinant hGYS2/GN1 protein) (Homo sapiens (Human), UniProt P54840). In words: GYS2 coupled enzyme assay (PK/LDH). The experiment is classed as biochemical. Particulars: geometric mean of at least 2 assay runs on separate days, read-out: Avg_IC50. Put shortly: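 Recombinant hGYS2/GN1 (200 nM) with 2 mM UDP-glucose, 0.2% rabbit liver glycogen, 2 mM glucose-6-phosphate; UDP coupled via PK/LDH (2 mM PEP, 0.6 mM NADH). Buffer 50 mM Tris pH 7.5, 2 mM MgCl2, 100 mM KCl, 2.5% DMSO. A340 slope over 10 min; IC50 from Hill fit of duplicates.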
hGYS2 enzyme (recombinant hGYS2/GN1 protein), sequence (P54840 whole entry): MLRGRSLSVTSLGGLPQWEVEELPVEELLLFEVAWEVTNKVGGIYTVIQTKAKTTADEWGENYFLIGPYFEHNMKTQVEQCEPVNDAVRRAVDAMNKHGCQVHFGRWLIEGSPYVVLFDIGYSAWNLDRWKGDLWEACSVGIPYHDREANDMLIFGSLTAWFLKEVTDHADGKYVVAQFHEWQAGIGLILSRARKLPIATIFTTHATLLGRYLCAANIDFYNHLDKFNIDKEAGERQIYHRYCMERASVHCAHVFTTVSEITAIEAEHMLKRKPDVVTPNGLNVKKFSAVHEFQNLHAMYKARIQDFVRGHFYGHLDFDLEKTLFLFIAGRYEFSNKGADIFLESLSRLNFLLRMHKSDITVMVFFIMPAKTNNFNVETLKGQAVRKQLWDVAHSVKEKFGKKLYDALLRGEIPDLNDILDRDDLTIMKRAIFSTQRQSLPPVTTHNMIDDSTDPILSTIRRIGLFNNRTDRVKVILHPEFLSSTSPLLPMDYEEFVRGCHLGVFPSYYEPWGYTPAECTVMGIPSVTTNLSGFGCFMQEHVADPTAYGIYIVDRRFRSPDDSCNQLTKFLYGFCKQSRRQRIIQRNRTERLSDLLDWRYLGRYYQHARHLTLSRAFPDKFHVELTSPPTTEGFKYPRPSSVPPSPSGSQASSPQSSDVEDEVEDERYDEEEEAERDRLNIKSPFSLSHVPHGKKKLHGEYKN
hGYS2 enzyme (recombinant hGYS2/GN1 protein), sequence (P46976 whole entry partner): as the sequence (P46976 whole entry partner) above

Consider `O=C(N[C@@H](c1ccccc1)c1ccc(C2CC2)c(F)n1)[C@@H]1C[C@@H](F)CN1C(=O)Cn1cccn1` [Compound 723, (2S,4R)-N-[(S)-(5-cyclopropyl-6-fluoropyridin-2-yl)(phenyl)methyl]-4-fluoro-1-[2-(1H-pyrazol-1-yl)acetyl]pyrrolidine-2-carboxamide], for which the IC50 in experiment [1] was 46 nM; in experiment [2] it was 720 nM; in experiment [3], > 100000 nM.
For the compound `Cc1ccnn1CC(=O)N1C[C@H](F)C[C@H]1C(=O)N[C@@H](c1ccccc1)c1ccc(C2CC2)c(F)n1` [Compound 724, (2S,4R)-N-[(S)-(5-cyclopropyl-6-fluoropyridin-2-yl)(phenyl)methyl]-4-fluoro-1-[2-(5-methyl-1H-pyrazol-1-yl)acetyl]pyrrolidine-2-carboxamide], the IC50 in experiment [1] is 34 nM; in experiment [2], 630 nM; in experiment [3], > 100000 nM.
`O=C(N[C@@H](c1ccccc1)c1ccc(C2CC2)c(F)n1)[C@@H]1C[C@@H](F)CN1C(=O)Cn1nccc1C(F)F` [Compound 725, (2S,4R)-N-[(S)-(5-cyclopropyl-6-fluoropyridin-2-yl)(phenyl)methyl]-1-{2-[5-(difluoromethyl)-1H-pyrazol-1-yl]acetyl}-4-fluoropyrrolidine-2-carboxamide]: the IC50 in experiment [1] is 15 nM; in experiment [2], 310 nM; in experiment [3], > 100000 nM.
As for `O=C(N[C@@H](c1ccccc1)c1ccc(C2CC2)c(F)n1)[C@@H]1C[C@@H](F)CN1C(=O)Cn1cc(N2CCC2)nn1` [Compound 726, (2S,4R)-1-{2-[4-(azetidin-1-yl)-1H-1,2,3-triazol-1-yl]acetyl}-N-[(S)-(5-cyclopropyl-6-fluoropyridin-2-yl)(phenyl)methyl]-4-fluoropyrrolidine-2-carboxamide], the IC50 in experiment [1] is 30 nM; in experiment [2], 540 nM; in experiment [3], > 100000 nM.
As for `O=C(N[C@@H](c1ccccc1)c1ccc(C2CC2)c(F)n1)[C@@H]1C[C@@H](F)CN1C(=O)Cn1ccc(=O)[nH]c1=O` [Compound 727, (2S,4R)-N-[(S)-(5-cyclopropyl-6-fluoropyridin-2-yl)(phenyl)methyl]-1-[2-(2,4-dioxo-1,2,3,4-tetrahydropyrimidin-1-yl)acetyl]-4-fluoropyrrolidine-2-carboxamide], the figures for the IC50 in experiment [1], in experiment [2] and in experiment [3] were 17 nM, 910 nM and > 100000 nM, respectively.
Consider `O=C(N[C@@H](c1ccccc1)c1ccc(C2CC2)c(F)n1)[C@@H]1C[C@@H](F)CN1C(=O)Cn1cc(C(F)(F)F)cn1` [Compound 728, (2S,4R)-N-[(S)-(5-cyclopropyl-6-fluoropyridin-2-yl)(phenyl)methyl]-4-fluoro-1-{2-[4-(trifluoromethyl)-1H-pyrazol-1-yl]acetyl}pyrrolidine-2-carboxamide], for which the results for the IC50 in experiment [1], in experiment [2] and in experiment [3] were 36 nM, 790 nM and > 100000 nM, respectively.
`O=C(N[C@@H](c1ccccc1)c1ccc(C2CC2)c(F)n1)[C@@H]1C[C@@H](F)CN1C(=O)Cn1ccc(C(F)F)n1` [Compound 729, (2S,4R)-N-[(S)-(5-cyclopropyl-6-fluoropyridin-2-yl)(phenyl)methyl]-1-{2-[3-(difluoromethyl)-1H-pyrazol-1-yl]acetyl}-4-fluoropyrrolidine-2-carboxamide]: the IC50 is 39 nM in experiment [1], 710 nM in experiment [2] and > 100000 nM in experiment [3].
Regarding `O=C(N[C@@H](c1ccccc1)c1ccc(C2CC2)c(F)n1)[C@@H]1C[C@@H](F)CN1C(=O)Cc1ccc[nH]c1=O` [Compound 731, (2S,4R)-N-[(S)-(5-cyclopropyl-6-fluoropyridin-2-yl)(phenyl)methyl]-4-fluoro-1-[2-(2-oxo-1,2-dihydropyridin-3-yl)acetyl]pyrrolidine-2-carboxamide], the values for the IC50 in experiment [1], in experiment [2] and in experiment [3] were 66 nM, 1620 nM and > 100000 nM, respectively.
On the same counts, the results for `Cc1cc(CC(=O)N2C[C@H](F)C[C@H]2C(=O)N[C@@H](c2ccccc2)c2ccc(C3CC3)c(F)n2)c[nH]c1=O` [Compound 732, (2S,4R)-N-[(S)-(5-cyclopropyl-6-fluoropyridin-2-yl)(phenyl)methyl]-4-fluoro-1-[2-(5-methyl-6-oxo-1,6-dihydropyridin-3-yl)acetyl]pyrrolidine-2-carboxamide] are 27 nM, 1370 nM and > 100000 nM.
Regarding `CCn1c(=O)c(C)cn(CC(=O)N2C[C@H](F)C[C@H]2C(=O)N[C@@H](c2ccccc2)c2ccc(C3CC3)c(F)n2)c1=O` [Compound 733, (2S,4R)-N-[(S)-(5-cyclopropyl-6-fluoropyridin-2-yl)(phenyl)methyl]-1-[2-(3-ethyl-5-methyl-2,4-dioxo-1,2,3,4-tetrahydropyrimidin-1-yl)acetyl]-4-fluoropyrrolidine-2-carboxamide], the IC50 in experiment [1] was 5 nM; in experiment [2] it was 150 nM; in experiment [3] it was > 100000 nM.
With `O=C(N[C@@H](c1ccccc1)c1ccc(C2CC2)c(F)n1)[C@@H]1C[C@@H](F)CN1C(=O)Cc1ccc(=O)[nH]c1` [Compound 734, (2S,4R)-N-[(S)-(5-cyclopropyl-6-fluoropyridin-2-yl)(phenyl)methyl]-4-fluoro-1-[2-(6-oxo-1,6-dihydropyridin-3-yl)acetyl]pyrrolidine-2-carboxamide], the IC50 in experiment [1] was 26 nM; in experiment [2], 1730 nM; in experiment [3], > 100000 nM.
Take `CCn1c(=O)ccn(CC(=O)N2C[C@H](F)C[C@H]2C(=O)N[C@@H](c2ccccc2)c2ccc(C3CC3)c(F)n2)c1=O` [Compound 735, (2S,4R)-N-[(S)-(5-cyclopropyl-6-fluoropyridin-2-yl)(phenyl)methyl]-1-[2-(3-ethyl-2,4-dioxo-1,2,3,4-tetrahydropyrimidin-1 yl)acetyl]-4-fluoropyrrolidine-2-carboxamide]: the IC50 in experiment [1] is 5 nM; in experiment [2], 270 nM; in experiment [3] it was > 100000 nM.
On the same counts, the results for `CCn1cc(CC(=O)N2C[C@H](F)C[C@H]2C(=O)N[C@@H](c2ccccc2)c2ccc(C3CC3)c(F)n2)ccc1=O` [Compound 736, (2S,4R)-N-[(S)-(5-cyclopropyl-6-fluoropyridin-2-yl)(phenyl)methyl]-1-[2-(1-ethyl-6-oxo-1,6-dihydropyridin-3-yl)acetyl]-4-fluoropyrrolidine-2-carboxamide] are 20 nM, 780 nM and > 100000 nM.
Consider `CC(C)c1ccc([C@@H](NC(=O)[C@@H]2C[C@@H](F)CN2S(=O)(=O)Cc2cnn[nH]2)c2ccccc2)cc1F` [Compound 772, (2S,4R)-4-fluoro-N-[(S)-[3-fluoro-4-(propan-2-yl)phenyl](phenyl)methyl]-1-[(1H-1,2,3-triazol-5-yl)methanesulfonyl] pyrrolidine-2-carboxamide], for which the IC50 is 356 nM in experiment [1], 4530 nM in experiment [2] and > 100000 nM in experiment [3].
Take `CC(C)c1ccc([C@@H](NC(=O)[C@@H]2C[C@@H](F)CN2C(=O)CCn2nc3ccccn3c2=O)c2ccccc2)nc1F` [Compound 780, (2S,4R)-4-fluoro-N-[(S)-[6-fluoro-5-(propan-2-yl)pyridin-2-yl](phenyl)methyl]-1-{3-{3-oxo-2H,3H-[1,2,4]triazolo[4,3-a]pyridin-2-yl}propanoyl)pyrrolidine-2-carboxamide]: the IC50 in experiment [1] was 9 nM; in experiment [2], 280 nM; in experiment [3] it was > 100000 nM.
On to `CC(C)c1ccc([C@@H](NC(=O)[C@@H]2C[C@@H](F)CN2C(=O)Cn2cccn2)c2ccccc2)nc1F` [Compound 781, (2S,4R)-4-fluoro-N-[(S)-[6-fluoro-5-(propan-2-yl)pyridin-2-yl](phenyl)methyl]-1-[2-(1H-pyrazol-1-yl)acetyl]pyrrolidine-2-carboxamide], for which the IC50 was 11 nM in experiment [1], 270 nM in experiment [2] and > 100000 nM in experiment [3].
On to `Cc1ccnn1CC(=O)N1C[C@H](F)C[C@H]1C(=O)N[C@@H](c1ccccc1)c1ccc(C(C)C)c(F)n1` [Compound 782, (2S,4R)-4-fluoro-N-[(S)-[6-fluoro-5-(propan-2-yl)pyridin-2-yl](phenyl)methyl]-1-[2-(5-methyl-1H-pyrazol-1-yl)acetyl] pyrrolidine-2-carboxamide], for which the IC50 is 11 nM in experiment [1], 220 nM in experiment [2] and > 100000 nM in experiment [3].
Turning to `CC(C)c1ccc([C@@H](NC(=O)[C@@H]2C[C@@H](F)CN2C(=O)Cn2nccc2C(F)F)c2ccccc2)nc1F` [Compound 783, (2S,4R)-1-{2-[5-(difluoromethyl)-1H-pyrazol-1-yl]acetyl}-4-fluoro-N-[(S)-[6-fluoro-5-(propan-2-yl)pyridin-2-yl](phenyl)methyl] pyrrolidine-2-carboxamide], the IC50 in experiment [1] was 5 nM; in experiment [2] it was 80 nM; in experiment [3], > 100000 nM.
On the same counts, the results for `Cc1cc(CC(=O)N2C[C@H](F)C[C@H]2C(=O)N[C@@H](c2ccccc2)c2ccc(C(C)C)c(F)n2)c[nH]c1=O` [Compound 784, (2S,4R)-4-fluoro-N-[(S)-[6-fluoro-5-(propan-2-yl)pyridin-2-yl](phenyl)methyl]-1-[2-(5-methyl-6-oxo-1,6-dihydropyridin-3-yl)acetyl]pyrrolidine-2-carboxamide] are 5 nM, 310 nM and > 100000 nM.
